Structures can show the parent of a compound that is named as a salt. Where two headings read alike, the source gives them in different places.
Experiments:
Format in all cases: cell-based
[1] = test system: Cryptococcus neoformans spore germination; test: High throughput nanoluciferase screen of spore germination (L1300 Selleck FDA-Approved Drug Library)
From the text: (§1) To identify inhibitors of Cryptococcus neoformans spore germination, a high throughput screen was developed that utilizes a nanoluciferase construct to monitor whether spores germinate in the presence of inhibitor. Briefly a protein luciferase construct was created resulting in a low luciferase signal for non-germinated spores and a high signal from germinated and replicating cells. The screen was coupled with OD600 readings to monitor the ability of compounds to inhibit yeast replication. The examples focused on FDA-approved drugs, as these drugs have the potential of being repurposed into antifungal therapeutics. To determine whether any FDA-approved drugs were able to inhibit Cryptococcus neoformans spore germination and yeast replication, the aforementioned high throughput screen was performed on the L1300 Selleck FDA-Approved Drug Library containing an array of 1108 compounds. This library of compounds is available commercially from Selleck Chemicals, 14408 W Sylvanfield Drive, Houston, Tex. 77014, USA.
(§2) The screening was successful at identifying known antifungal drugs as inhibitors of yeast replication as indicated by an OD600 signal of less than 75% of the negative control (Table 2). For the purpose of these examples, antifungal drugs were defined as any FDA-approved drug used in the treatment of fungal infections. Of these 23 known antifungal drugs, only six (6) were identified as inhibitors of spore germination, indicated by a luciferase signal of less than 30% of the negative control.

[2] = test system: Cryptococcus neoformans yeast replication; settings: signal relative to negative control
From the text: as §1, §2

[3] = test system: Cryptococcus neoformans (JEC21); test: MIC/MFC experiments (EUCAST based), JEC21; settings: for Ability to inhibit yeast growth / replication in MIC and MFC testing: yeast strain not given, data not shown for non-inhibitors
Procedure: (§3) All minimum inhibitory concentration (MIC) experiments were based on EUCAST methodology. […] After 6-hour incubation, yeast cells were washed in 1×PBS and quantified using a hemocytometer. […] Cryptococcus neoformans cells were incubated for 2 days at 30° C. while Candida albicans strains were incubated for 2 days at 35° C. OD600 readings were used to assess the MIC values for each drug. To determine minimum fungicidal concentrations (MFC) values, 3 μL per well were plated on YPD and allowed to grow for 2 days.

[4] = test system: Cryptococcus neoformans (H99); test: MIC/MFC experiments (EUCAST based), H99; settings: Cryptococcus neoformans, 48 h
Procedure: as §3

[5] = test system: Candida albicans (SC5314); test: MIC/MFC experiments (EUCAST based), Candida albicans; settings: SC5314, 48 h
Procedure: as §3

[6] = Table 2, antifungal drugs, signal relative to negative control, less than 30% = inhibitor of germination
[7] = Table 2, antifungal drugs, less than 75% = inhibitor of yeast replication
[8] = Table 3, other FDA-approved drugs
[9] = Table 3, other FDA-approved drugs, signal relative to negative control

Compound	Germination Percent Luciferase Signal [1, 6]	Replication Percent OD600 [2, 7]	Replication Percent OD600 [2, 8]	other results
CCC(C)(C)c1ccc(CC(C)CN2C[C@@H](C)O[C@@H](C)C2)cc1 (stereo partly drawn) [Amorolfine HCl]	88.6%	41.4%	–	–
C[C@@H]1[C@H](O)[C@@H](C)/C=C/C=C/C=C/C=C/C=C/C=C/C=C/[C@H](O[C@@H]2O[C@H](C)[C@@H](O)[C@H](N)[C@@H]2O)C[C@@H]2O[C@](O)(C[C@@H](O)C[C@@H](O)[C@H](O)CC[C@@H](O)C[C@@H](O)CC(=O)O[C@H]1C)C[C@H](O)[C@H]2C(=O)O [Amphotericin B]	84.6%	45.7%	–	–
CC(C)(C)CC(C)(C)c1ccc(OCCOCC[N+](C)(C)Cc2ccccc2)cc1 [Benzethonium chloride]	–	–	30.3%	Germination Percent Luciferase Signal [1]: 6.9%
OC(CCN1CCCCC1)(c1ccccc1)C1CC2C=CC1C2 (stereo not drawn) [Biperiden HCl]	–	–	56.6%	Germination Percent Luciferase Signal [1, 9]: 23.4%; Ability to inhibit yeast growth / replication in MIC and MFC testing [3]: unable to inhibit yeast growth
CN(Cc1ccc(C(C)(C)C)cc1)Cc1cccc2ccccc12 [Butenafine HCl]	57.5%	32.9%	–	–
Clc1ccc(CCC(Cn2ccnc2)Sc2c(Cl)cccc2Cl)cc1 (stereo not drawn) [Butoconazole nitrate]	41.5%	33.4%	–	–
CCCCCCCCCCCCCCCC[N+](C)(C)C.[Br-] [Cetrimonium bromide]	–	–	63.2%	Germination Percent Luciferase Signal [1, 9]: 4.4%
CCCCCCCCCCCCCCCC[n+]1ccccc1 [Cetylpyridinium chloride]	–	–	31.9%	Germination Percent Luciferase Signal [1]: 4.2%; MFC ([3]; Cryptococcus neoformans, 48 h): < 0.78 µg/mL; MFC [4]: < 0.78 µg/mL; MFC [5]: 3.13 µg/mL
CC(C)(C)C(=O)C(Oc1ccc(Cl)cc1)n1ccnc1 (stereo not drawn) [Climbazole]	151.5%	38.9%	–	–
Clc1ccccc1C(c1ccccc1)(c1ccccc1)n1ccnc1 [Clotrimazole]	65.9%	34.1%	–	–
Cc1cc(N)c2ccccc2[n+]1CCCCCCCCCC[n+]1c(C)cc(N)c2ccccc21 [Dequalinium chloride]	–	–	47.9%	Germination Percent Luciferase Signal [1, 9]: 22.3%
CCCCCCCCCCCC[N+](C)(C)CCOc1ccccc1 [Domiphen bromide]	–	–	63.9%	Germination Percent Luciferase Signal [1, 9]: 4.4%
C=C1/C(=C\C=C2/CCC[C@]3(C)[C@@H]([C@H](C)/C=C/[C@H](C)C(C)C)CC[C@@H]23)C[C@@H](O)C[C@@H]1O [Doxercalciferol]	–	–	55.2%	Germination Percent Luciferase Signal [1, 9]: 17.1%
CO[C@H]1C[C@@H]2CC[C@@H](C)[C@@](O)(O2)C(=O)C(=O)N2CCCC[C@H]2C(=O)O[C@H]([C@H](C)C[C@@H]2CC[C@@H](OCCO)[C@H](OC)C2)CC(=O)[C@H](C)/C=C(\C)[C@@H](O)[C@@H](OC)C(=O)[C@H](C)C[C@H](C)/C=C/C=C/C=C/1C [Everolimus]	–	–	67.7%	Germination Percent Luciferase Signal [1, 9]: 15.7%
O=C1[C@H](CC[C@H](O)c2ccc(F)cc2)[C@@H](c2ccc(O)cc2)N1c1ccc(F)cc1 [Ezetimibe]	–	–	51.3%	Germination Percent Luciferase Signal [1, 9]: 22.0%; Ability to inhibit yeast growth / replication in MIC and MFC testing [3]: unable to inhibit yeast growth
Clc1ccc(C(Cn2ccnc2)OCc2ccc(Sc3ccccc3)cc2)c(Cl)c1 (stereo not drawn) [Fenticonazole nitrate]	49.1%	36.4%	–	–

Compound	Germination Percent Luciferase Signal [1, 6]	Replication Percent OD600 [2, 7]	Replication Percent OD600 [2, 8]	other results
OC(Cn1cncn1)(Cn1cncn1)c1ccc(F)cc1F [Fluconazole]	84.0%	72.2%	–	–
Clc1ccc(C(Cn2ccnc2)OCc2c(Cl)cccc2Cl)c(Cl)c1 (stereo not drawn) [Isoconazole nitrate]	16.8%	37.0%	–	–
CCC(C)n1ncn(-c2ccc(N3CCN(c4ccc(OCC5COC(Cn6cncn6)(c6ccc(Cl)cc6Cl)O5)cc4)CC3)cc2)c1=O (stereo not drawn) [Itraconazole]	159.6%	58.9%	–	–
CC(=O)N1CCN(c2ccc(OCC3COC(Cn4ccnc4)(c4ccc(Cl)cc4Cl)O3)cc2)CC1 (stereo not drawn) [Ketoconazole]	154.8%	35.4%	–	–
COc1cccc(N(C)C(=S)Oc2ccc3c(c2)CCCC3)n1 [Liranaftate]	64.8%	37.6%	–	–
Clc1ccc(COC(Cn2ccnc2)c2ccc(Cl)cc2Cl)c(Cl)c1 (stereo not drawn) [Miconazole nitrate]	25.5%	38.2%	–	–
CN(C/C=C/c1ccccc1)Cc1cccc2ccccc12 [Naftifine HCl]	55.5%	34.5%	–	–
C=CC(=O)N1CCC[C@@H](n2nc(-c3ccc(Oc4ccccc4)cc3)c3c(N)ncnc32)C1 [PCl-32765]	–	–	70.3%	Germination Percent Luciferase Signal [1, 9]: 10.6%
N=C(N)c1ccc(OCCCCCOc2ccc(C(=N)N)cc2)cc1 [Pentamidine HCl]	6.5%	38.3%	–	–
CC[C@@H]([C@H](C)O)n1ncn(-c2ccc(N3CCN(c4ccc(OC[C@@H]5CO[C@@](Cn6cncn6)(c6ccc(F)cc6F)C5)cc4)CC3)cc2)c1=O [Posaconazole]	167.2%	46.7%	–	–
CO[C@H]1C[C@@H]2CC[C@@H](C)[C@@](O)(O2)C(=O)C(=O)N2CCCC[C@H]2C(=O)O[C@H]([C@H](C)C[C@@H]2CC[C@@H](O)[C@H](OC)C2)CC(=O)[C@H](C)/C=C(\C)[C@@H](O)[C@@H](OC)C(=O)[C@H](C)C[C@H](C)/C=C/C=C/C=C/1C [Rapamycin]	–	–	61.8%	Germination Percent Luciferase Signal [1, 9]: 18.5%
Clc1ccc(CSC(Cn2ccnc2)c2ccc(Cl)cc2Cl)cc1 (stereo not drawn) [Sulconazole nitrate]	57.8%	40.9%	–	–
Clc1ccc(C(Cn2ccnc2)OCc2ccsc2Cl)c(Cl)c1 (stereo not drawn) [Tioconazoie]	25.0%	36.8%	–	–
Cc1cccc(N(C)C(=S)Oc2ccc3ccccc3c2)c1 [Tolnaftate]	60.2%	47.3%	–	–
C[C@@H](c1ncncc1F)[C@](O)(Cn1cncn1)c1ccc(F)cc1F [Voriconazole]	173.9%	35.8%	–	–
Caspofungin acetate	89.7%	48.5%	–	–

Source: US11981953B2, “Method to screen compounds for antifungal activity and pharmaceutical compositions and methods to treat fungal diseases by inhibiting spore germination” (WISCONSIN ALUMNI RESEARCH FOUNDATION, priority 2018, dated 2024)
